Assay results: ChEMBL document CHEMBL3272333, “Synthesis and biologic distribution of radioiodinated beta-adrenergic antagonists” (J Med Chem, 1978)

Assays:
Set-up in all cases: dose 0.5-1 mg/kg, route intravenous
[1] = system: Liver; assay: Biodistribution in Sprague-Dawley rat liver at 0.5 to 1 mg/kg, iv after 15 mins by gamma-well counting analysis; type: ADME, organism-based; conditions: in vivo, 0.25 h
[2] = system: Spleen; assay: Biodistribution in Sprague-Dawley rat spleen at 0.5 to 1 mg/kg, iv after 15 mins by gamma-well counting analysis; type: ADME, organism-based; conditions: in vivo, 0.25 h
[3] = system: Lung; assay: Biodistribution in Sprague-Dawley rat lung at 0.5 to 1 mg/kg, iv after 15 mins by gamma-well counting analysis; type: ADME, organism-based; conditions: in vivo, 0.25 h
[4] = system: Heart; assay: Biodistribution in Sprague-Dawley rat heart at 0.5 to 1 mg/kg, iv after 15 mins by gamma-well counting analysis; type: ADME, organism-based; conditions: in vivo, 0.25 h
[5] = system: Kidney; assay: Biodistribution in Sprague-Dawley rat kidney at 0.5 to 1 mg/kg, iv after 15 mins by gamma-well counting analysis; type: ADME, organism-based; conditions: in vivo, 0.25 h
[6] = system: Muscle tissue; assay: Biodistribution in Sprague-Dawley rat muscle at 0.5 to 1 mg/kg, iv after 15 mins by gamma-well counting analysis; type: ADME, organism-based; conditions: in vivo, 0.25 h
[7] = system: Bone; assay: Biodistribution in Sprague-Dawley rat bone at 0.5 to 1 mg/kg, iv after 15 mins by gamma-well counting analysis; type: ADME, organism-based, Bone element; conditions: in vivo, 0.25 h
[8] = system: Blood; assay: Biodistribution in Sprague-Dawley rat blood at 0.5 to 1 mg/kg, iv after 15 mins by gamma-well counting analysis; type: ADME, organism-based; conditions: in vivo, 0.25 h
[9] = system: Thyroid gland; assay: Biodistribution in Sprague-Dawley rat thyroid at 0.5 to 1 mg/kg, iv after 15 mins by gamma-well counting analysis; type: ADME, organism-based; conditions: in vivo, 0.25 h
[10] = system: Liver; assay: Biodistribution in Sprague-Dawley rat liver at 0.5 to 1 mg/kg, iv after 1 hr by gamma-well counting analysis; type: ADME, organism-based; conditions: in vivo
[11] = system: Spleen; assay: Biodistribution in Sprague-Dawley rat spleen at 0.5 to 1 mg/kg, iv after 1 hr by gamma-well counting analysis; type: ADME, organism-based; conditions: in vivo
[12] = system: Lung; assay: Biodistribution in Sprague-Dawley rat lung at 0.5 to 1 mg/kg, iv after 1 hr by gamma-well counting analysis; type: ADME, organism-based; conditions: in vivo
[13] = system: Heart; assay: Biodistribution in Sprague-Dawley rat heart at 0.5 to 1 mg/kg, iv after 1 hr by gamma-well counting analysis; type: ADME, organism-based; conditions: in vivo
[14] = system: Kidney; assay: Biodistribution in Sprague-Dawley rat kidney at 0.5 to 1 mg/kg, iv after 1 hr by gamma-well counting analysis; type: ADME, organism-based; conditions: in vivo
[15] = system: Muscle tissue; assay: Biodistribution in Sprague-Dawley rat muscle at 0.5 to 1 mg/kg, iv after 1 hr by gamma-well counting analysis; type: ADME, organism-based; conditions: in vivo
[16] = system: Bone; assay: Biodistribution in Sprague-Dawley rat bone at 0.5 to 1 mg/kg, iv after 1 hr by gamma-well counting analysis; type: ADME, organism-based, Bone element; conditions: in vivo
[17] = system: Blood; assay: Biodistribution in Sprague-Dawley rat blood at 0.5 to 1 mg/kg, iv after 1 hr by gamma-well counting analysis; type: ADME, organism-based; conditions: in vivo
[18] = system: Thyroid gland; assay: Biodistribution in Sprague-Dawley rat thyroid at 0.5 to 1 mg/kg, iv after 1 hr by gamma-well counting analysis; type: ADME, organism-based; conditions: in vivo
[19] = system: Liver; assay: Biodistribution in Sprague-Dawley rat liver assessed per organ at 0.5 to 1 mg/kg, iv after 15 mins by gamma-well counting analysis; type: ADME, organism-based; conditions: in vivo, 0.25 h
[20] = system: Spleen; assay: Biodistribution in Sprague-Dawley rat spleen assessed per organ at 0.5 to 1 mg/kg, iv after 15 mins by gamma-well counting analysis; type: ADME, organism-based; conditions: in vivo, 0.25 h
[21] = system: Lung; assay: Biodistribution in Sprague-Dawley rat lung assessed per organ at 0.5 to 1 mg/kg, iv after 15 mins by gamma-well counting analysis; type: ADME, organism-based; conditions: in vivo, 0.25 h
[22] = system: Heart; assay: Biodistribution in Sprague-Dawley rat heart assessed per organ at 0.5 to 1 mg/kg, iv after 15 mins by gamma-well counting analysis; type: ADME, organism-based; conditions: in vivo, 0.25 h
[23] = system: Stomach; assay: Biodistribution in Sprague-Dawley rat stomach assessed per organ at 0.5 to 1 mg/kg, iv after 15 mins by gamma-well counting analysis; type: ADME, organism-based; conditions: in vivo, 0.25 h
[24] = system: Kidney; assay: Biodistribution in Sprague-Dawley rat kidney assessed per organ at 0.5 to 1 mg/kg, iv after 15 mins by gamma-well counting analysis; type: ADME, organism-based; conditions: in vivo, 0.25 h
[25] = system: Small intestine; assay: Biodistribution in Sprague-Dawley rat small intestine assessed per organ at 0.5 to 1 mg/kg, iv after 15 mins by gamma-well counting analysis; type: ADME, organism-based; conditions: in vivo, 0.25 h
[26] = system: Large intestine; assay: Biodistribution in Sprague-Dawley rat large intestine assessed per organ at 0.5 to 1 mg/kg, iv after 15 mins by gamma-well counting analysis; type: ADME, organism-based; conditions: in vivo, 0.25 h
[27] = system: Muscle tissue; assay: Biodistribution in Sprague-Dawley rat muscle assessed per organ at 0.5 to 1 mg/kg, iv after 15 mins by gamma-well counting analysis; type: ADME, organism-based; conditions: in vivo, 0.25 h
[28] = Biodistribution in Sprague-Dawley rat fat and fur assessed per organ at 0.5 to 1 mg/kg, iv after 15 mins by gamma-well counting analysis; type: ADME, organism-based, Adipose tissue; conditions: in vivo, 0.25 h
[29] = system: Bone; assay: Biodistribution in Sprague-Dawley rat bone assessed per organ at 0.5 to 1 mg/kg, iv after 15 mins by gamma-well counting analysis; type: ADME, organism-based, Bone element; conditions: in vivo, 0.25 h
[30] = system: Blood; assay: Biodistribution in Sprague-Dawley rat blood assessed per organ at 0.5 to 1 mg/kg, iv after 15 mins by gamma-well counting analysis; type: ADME, organism-based; conditions: in vivo, 0.25 h
[31] = system: Thyroid gland; assay: Biodistribution in Sprague-Dawley rat thyroid assessed per organ at 0.5 to 1 mg/kg, iv after 15 mins by gamma-well counting analysis; type: ADME, organism-based; conditions: in vivo, 0.25 h
[32] = system: Liver; assay: Biodistribution in Sprague-Dawley rat liver assessed per organ at 0.5 to 1 mg/kg, iv after 1 hr by gamma-well counting analysis; type: ADME, organism-based; conditions: in vivo
[33] = system: Spleen; assay: Biodistribution in Sprague-Dawley rat spleen assessed per organ at 0.5 to 1 mg/kg, iv after 1 hr by gamma-well counting analysis; type: ADME, organism-based; conditions: in vivo
[34] = system: Lung; assay: Biodistribution in Sprague-Dawley rat lung assessed per organ at 0.5 to 1 mg/kg, iv after 1 hr by gamma-well counting analysis; type: ADME, organism-based; conditions: in vivo
[35] = system: Heart; assay: Biodistribution in Sprague-Dawley rat heart assessed per organ at 0.5 to 1 mg/kg, iv after 1 hr by gamma-well counting analysis; type: ADME, organism-based; conditions: in vivo
[36] = system: Stomach; assay: Biodistribution in Sprague-Dawley rat stomach assessed per organ at 0.5 to 1 mg/kg, iv after 1 hr by gamma-well counting analysis; type: ADME, organism-based; conditions: in vivo
[37] = system: Kidney; assay: Biodistribution in Sprague-Dawley rat kidney assessed per organ at 0.5 to 1 mg/kg, iv after 1 hr by gamma-well counting analysis; type: ADME, organism-based; conditions: in vivo
[38] = system: Small intestine; assay: Biodistribution in Sprague-Dawley rat small intestine assessed per organ at 0.5 to 1 mg/kg, iv after 1 hr by gamma-well counting analysis; type: ADME, organism-based; conditions: in vivo
[39] = system: Large intestine; assay: Biodistribution in Sprague-Dawley rat large intestine assessed per organ at 0.5 to 1 mg/kg, iv after 1 hr by gamma-well counting analysis; type: ADME, organism-based; conditions: in vivo
[40] = system: Muscle tissue; assay: Biodistribution in Sprague-Dawley rat muscle assessed per organ at 0.5 to 1 mg/kg, iv after 1 hr by gamma-well counting analysis; type: ADME, organism-based; conditions: in vivo
[41] = Biodistribution in Sprague-Dawley rat fat and fur assessed per organ at 0.5 to 1 mg/kg, iv after 1 hr by gamma-well counting analysis; type: ADME, organism-based, Adipose tissue; conditions: in vivo
[42] = system: Bone; assay: Biodistribution in Sprague-Dawley rat bone assessed per organ at 0.5 to 1 mg/kg, iv after 1 hr by gamma-well counting analysis; type: ADME, organism-based, Bone element; conditions: in vivo
[43] = system: Blood; assay: Biodistribution in Sprague-Dawley rat blood assessed per organ at 0.5 to 1 mg/kg, iv after 1 hr by gamma-well counting analysis; type: ADME, organism-based; conditions: in vivo
[44] = system: Thyroid gland; assay: Biodistribution in Sprague-Dawley rat thyroid assessed per organ at 0.5 to 1 mg/kg, iv after 1 hr by gamma-well counting analysis; type: ADME, organism-based; conditions: in vivo

## CC(C)NCC(O)COc1ccc([125I])c2ccccc12 (racemic)
[1]
  Drug uptake: 0.74 % ID/g
[2]
  Drug uptake: 1.15 % ID/g
[3]
  Drug uptake: 2.58 % ID/g
[4]
  Drug uptake: 0.35 % ID/g
[5]
  Drug uptake: 0.98 % ID/g
[6]
  Drug uptake: 0.2 % ID/g
[7]
  Drug uptake: 0.16 % ID/g
[8]
  Drug uptake: 0.12 % ID/g
[9]
  Drug uptake: 2.76 % ID/g
[10]
  Drug uptake: 0.66 % ID/g
[11]
  Drug uptake: 0.6 % ID/g
[12]
  Drug uptake: 2.01 % ID/g
[13]
  Drug uptake: 0.19 % ID/g
[14]
  Drug uptake: 0.76 % ID/g
[15]
  Drug uptake: 0.1 % ID/g
[16]
  Drug uptake: 0.12 % ID/g
[17]
  Drug uptake: 0.1 % ID/g
[18]
  Drug uptake: 6.85 % ID/g
[19]
  Drug uptake: 7.3 %ID
[20]
  Drug uptake: 0.52 %ID
[21]
  Drug uptake: 3.9 %ID
[22]
  Drug uptake: 0.26 %ID
[23]
  Drug uptake: 1.99 %ID
[24]
  Drug uptake: 1.83 %ID
[25]
  Drug uptake: 12.98 %ID
[26]
  Drug uptake: 1.41 %ID
[27]
  Drug uptake: 19.67 %ID
[28]
  Drug uptake: 8.82 %ID
[29]
  Drug uptake: 2.52 %ID
[30]
  Drug uptake: 1.87 %ID
[31]
  Drug uptake: 0.06 %ID
[32]
  Drug uptake: 7.08 %ID
[33]
  Drug uptake: 0.4 %ID
[34]
  Drug uptake: 2.78 %ID
[35]
  Drug uptake: 0.16 %ID
[36]
  Drug uptake: 2.24 %ID
[37]
  Drug uptake: 1.58 %ID
[38]
  Drug uptake: 16.23 %ID
[39]
  Drug uptake: 0.91 %ID
[40]
  Drug uptake: 10.71 %ID
[41]
  Drug uptake: 9.69 %ID
[42]
  Drug uptake: 1.84 %ID
[43]
  Drug uptake: 1.44 %ID
[44]
  Drug uptake: 0.14 %ID

## CC(C)NCC(O)COc1ccc(NC(=O)c2cccc([125I])c2)cc1 (racemic)
[1]
  Drug uptake: 1.76 % ID/g
[2]
  Drug uptake: 1.33 % ID/g
[3]
  Drug uptake: 1.24 % ID/g
[4]
  Drug uptake: 0.89 % ID/g
[5]
  Drug uptake: 1.82 % ID/g
[6]
  Drug uptake: 0.2 % ID/g
[7]
  Drug uptake: 0.21 % ID/g
[8]
  Drug uptake: 0.06 % ID/g
[9]
  Drug uptake: 4.73 % ID/g
[10]
  Drug uptake: 1.39 % ID/g
[11]
  Drug uptake: 1.14 % ID/g
[12]
  Drug uptake: 1.82 % ID/g
[13]
  Drug uptake: 0.51 % ID/g
[14]
  Drug uptake: 1.27 % ID/g
[15]
  Drug uptake: 0.17 % ID/g
[16]
  Drug uptake: 0.18 % ID/g
[17]
  Drug uptake: 0.06 % ID/g
[18]
  Drug uptake: 3.58 % ID/g
[19]
  Drug uptake: 18.94 %ID
[20]
  Drug uptake: 0.8 %ID
[21]
  Drug uptake: 1.89 %ID
[22]
  Drug uptake: 0.64 %ID
[23]
  Drug uptake: 0.71 %ID
[24]
  Drug uptake: 3.45 %ID
[25]
  Drug uptake: 2.45 %ID
[26]
  Drug uptake: 0.56 %ID
[27]
  Drug uptake: 18.27 %ID
[28]
  Drug uptake: 5.87 %ID
[29]
  Drug uptake: 2.93 %ID
[30]
  Drug uptake: 0.79 %ID
[31]
  Drug uptake: 0.1 %ID
[32]
  Drug uptake: 15.97 %ID
[33]
  Drug uptake: 0.6 %ID
[34]
  Drug uptake: 2.19 %ID
[35]
  Drug uptake: 0.35 %ID
[36]
  Drug uptake: 0.7 %ID
[37]
  Drug uptake: 2.3 %ID
[38]
  Drug uptake: 5.49 %ID
[39]
  Drug uptake: 0.94 %ID
[40]
  Drug uptake: 15.96 %ID
[41]
  Drug uptake: 7.19 %ID
[42]
  Drug uptake: 2.44 %ID
[43]
  Drug uptake: 0.86 %ID
[44]
  Drug uptake: 0.07 %ID
